The values below come from patent US20170112878A1, “PROGRAMMABLE UNIVERSAL CELL RECEPTORS AND METHOD OF USING THE SAME” (Sorrento Therapeutics, Inc., priority 2015, published 2017).

The experiment deals with PUCR comprising 38C2 scFab expressed on the membrane of the NKL cells. The experiment in a line: Programming of PUCR on NKL cells with AZD-PEG8-biotin, detected with DTAF-conjugated streptavidin by FACS. The class given is cell-based. The conditions noted are these: 1 μM or 10 μM, 4° C., 1 hour, PUCR-expressing vs wild-type NKL cells. The source says:
To generate constructs encoding a PUCR comprising humanized 38C2 scFab, a nucleic acid encoding the humanized 38C2 scFab was designed by fusing a nucleic acid encoding humanized 38C2 […] LC domain, a nucleic acid encoding a poly-GlySer linker, a nucleic acid encoding the humanized 38C2 VH domain, and a nucleic acid encoding the human gamma 1 HC constant domain 1. The resulting nucleic acid fragment was cloned into a retroviral vector to encode a PUCR comprising an N-terminal leader peptide, followed by the 38C2 scFab, followed by a hybrid CD8 and CD28 hinge, a CD28 transmembrane domain, a CD28 intracellular domain, and a CD3ζ intracellular domain. The nucleic acid and amino acid sequences of the PUCR are shown below. NKL cells were transduced with the viral vector encoding the PUCR.
The PUCR comprising 38C2 scFab expressed on the membrane of the NKL cells was conjugated (i.e., programmed) with the specificity agent AZD-PEG8-biotin (see FIG. 11). […] AZD-PEG8-biotin comprises the reactivity moiety azetidinone which reacts with and forms a stable covalent bond with the reactive lysine of the 38C2 scFab within the PUCR. […] Fluorescence was measured using a ACEA Biosciences NovoCyte flow cytometer. Data was analyzed with FlowJo software, and DTAF-conjugated streptavidin binding was quantified by increased mean fluorescence intensity. […]
Background: In flow cytometry, cells or beads pass a laser one at a time.

With `O=C(CCCC[C@@H]1SC[C@@H]2NC(=O)N[C@@H]21)NCCOCCOCCOCCOCCOCCOCCNC(=O)CCOCCOCCC(=O)Nc1ccc(CCC(=O)N2CCC2=O)cc1` [AZD-PEG8-Biotin, 5-[(3aS,4S,6aR)-2-oxo-1,3,3a,4,6,6a-hexahydrothieno[3,4-d]imidazol-4-yl]-N-[2-[2-[2-[2-[2-[2-[2-[3-[2-[3-oxo-3-[4-[3-oxo-3-(2-oxoazetidin-1-yl)propyl]anilino]propoxy]ethoxy]propanoylamino]ethoxy]ethoxy]ethoxy]ethoxy]ethoxy]ethoxy]ethyl]pentanamide], the “conjugation (programming) of PUCR, DTAF-conjugated streptavidin binding” value is “successfully programmed”.
